According to the NIST ThermoML archive (doi:10.1016/j.jct.2016.10.023):

Assay: xn = mol fraction of the nth substance listed
Details: Constant-volume piezometry

CCCCC [pentane] + CCCO
Details	mass density [kg/m3]
492.15 K, 4052 kPa, Gas, x1 = 0.5	144.33
492.15 K, 4112 kPa, Gas, x1 = 0.5	154.72
493.15 K, 888 kPa, Gas, x1 = 0.5	15.54
493.15 K, 1226 kPa, Gas, x1 = 0.8	22.56
493.15 K, 1421 kPa, Gas, x1 = 0.2	24.96
493.15 K, 1591 kPa, Gas, x1 = 0.5	30.02
493.15 K, 1810 kPa, Gas, x1 = 0.8	36.74
493.15 K, 2098 kPa, Gas, x1 = 0.5	40.54
493.15 K, 2429 kPa, Gas, x1 = 0.5	51.17
493.15 K, 2601 kPa, Gas, x1 = 0.8	58.5
493.15 K, 2706 kPa, Gas, x1 = 0.2	53.08
493.15 K, 2984 kPa, Gas, x1 = 0.5	67.61
493.15 K, 3042 kPa, Gas, x1 = 0.8	73.9
493.15 K, 3148 kPa, Gas, x1 = 0.5	72.7
493.15 K, 3184 kPa, Gas, x1 = 0.9	83.5
493.15 K, 3462 kPa, Gas, x1 = 0.5	89.03
493.15 K, 3598 kPa, Gas, x1 = 0.5	95.98
493.15 K, 3742 kPa, Gas, x1 = 0.8	106.55
493.15 K, 3862 kPa, Fluid (supercritical or subcritical phases), x1 = 0.9	123.52
493.15 K, 3941 kPa, Gas, x1 = 0.5	122.07
493.15 K, 3987 kPa, Fluid (supercritical or subcritical phases), x1 = 0.9	134.31
493.15 K, 4087 kPa, Gas, x1 = 0.5	144.32
493.15 K, 4129 kPa, Liquid, x1 = 0.2	471.17
493.15 K, 4161 kPa, Gas, x1 = 0.5	154.71
493.15 K, 4227 kPa, Gas, x1 = 0.5	165.38
493.15 K, 4237 kPa, Fluid (supercritical or subcritical phases), x1 = 0.8	140.51
493.15 K, 4263 kPa, Gas, x1 = 0.5	183.12
493.15 K, 4268 kPa, Fluid (supercritical or subcritical phases), x1 = 0.9	164.19
493.15 K, 4335 kPa, Fluid (supercritical or subcritical phases), x1 = 0.5	282.8
493.15 K, 4335 kPa, Fluid (supercritical or subcritical phases), x1 = 0.8	156.27
493.15 K, 4414 kPa, Fluid (supercritical or subcritical phases), x1 = 0.5	299.12
493.15 K, 4423 kPa, Fluid (supercritical or subcritical phases), x1 = 0.8	170.03
493.15 K, 4439 kPa, Fluid (supercritical or subcritical phases), x1 = 0.9	189.73
493.15 K, 4462 kPa, Fluid (supercritical or subcritical phases), x1 = 0.8	176.28
493.15 K, 4502 kPa, Fluid (supercritical or subcritical phases), x1 = 0.8	181.09
493.15 K, 4518 kPa, Fluid (supercritical or subcritical phases), x1 = 0.9	202.67
493.15 K, 4547 kPa, Fluid (supercritical or subcritical phases), x1 = 0.8	193.44
493.15 K, 4549 kPa, Fluid (supercritical or subcritical phases), x1 = 0.5	320.48
493.15 K, 4592 kPa, Fluid (supercritical or subcritical phases), x1 = 0.5	325.77
493.15 K, 4629 kPa, Fluid (supercritical or subcritical phases), x1 = 0.9	221.01
493.15 K, 4679 kPa, Fluid (supercritical or subcritical phases), x1 = 0.8	214.17
493.15 K, 4710 kPa, Fluid (supercritical or subcritical phases), x1 = 0.8	219.94
493.15 K, 4720 kPa, Fluid (supercritical or subcritical phases), x1 = 0.9	233.41
493.15 K, 4743 kPa, Fluid (supercritical or subcritical phases), x1 = 0.9	236.88
493.15 K, 4769 kPa, Fluid (supercritical or subcritical phases), x1 = 0.9	241.29
493.15 K, 4776 kPa, Fluid (supercritical or subcritical phases), x1 = 0.5	345.09
493.15 K, 4792 kPa, Fluid (supercritical or subcritical phases), x1 = 0.9	244.6
493.15 K, 4810 kPa, Fluid (supercritical or subcritical phases), x1 = 0.8	235.05
493.15 K, 4875 kPa, Fluid (supercritical or subcritical phases), x1 = 0.8	245.71
493.15 K, 4935 kPa, Fluid (supercritical or subcritical phases), x1 = 0.8	258.95
493.15 K, 5020 kPa, Fluid (supercritical or subcritical phases), x1 = 0.9	282.43
493.15 K, 5042 kPa, Fluid (supercritical or subcritical phases), x1 = 0.8	272.94
493.15 K, 5149 kPa, Fluid (supercritical or subcritical phases), x1 = 0.8	288.82
493.15 K, 5207 kPa, Fluid (supercritical or subcritical phases), x1 = 0.5	373.47
493.15 K, 5245 kPa, Fluid (supercritical or subcritical phases), x1 = 0.9	302.14
493.15 K, 5306 kPa, Fluid (supercritical or subcritical phases), x1 = 0.8	299.65
493.15 K, 5423 kPa, Fluid (supercritical or subcritical phases), x1 = 0.9	312.8
493.15 K, 5594 kPa, Fluid (supercritical or subcritical phases), x1 = 0.8	315.85
493.15 K, 5904 kPa, Fluid (supercritical or subcritical phases), x1 = 0.9	334.55
493.15 K, 5953 kPa, Fluid (supercritical or subcritical phases), x1 = 0.5	398.77
493.15 K, 5998 kPa, Fluid (supercritical or subcritical phases), x1 = 0.8	334.37
493.15 K, 6296 kPa, Fluid (supercritical or subcritical phases), x1 = 0.8	345.91
493.15 K, 6629 kPa, Fluid (supercritical or subcritical phases), x1 = 0.9	354.68
493.15 K, 6775 kPa, Fluid (supercritical or subcritical phases), x1 = 0.5	417.91
493.15 K, 7003 kPa, Fluid (supercritical or subcritical phases), x1 = 0.8	362.51
493.15 K, 7649 kPa, Liquid, x1 = 0.2	510.49
493.15 K, 8441 kPa, Fluid (supercritical or subcritical phases), x1 = 0.5	441.69
493.15 K, 9382 kPa, Fluid (supercritical or subcritical phases), x1 = 0.5	452.03
493.15 K, 10256 kPa, Fluid (supercritical or subcritical phases), x1 = 0.9	407.97
493.15 K, 10826 kPa, Fluid (supercritical or subcritical phases), x1 = 0.8	418.91
493.15 K, 11783 kPa, Fluid (supercritical or subcritical phases), x1 = 0.5	468.97
493.15 K, 14598 kPa, Liquid, x1 = 0.2	548.05

Liquid, x1 = 0.5
Details	mass density [kg/m3]
492.65 K	282.81
492.95 K	270.96
